Experimental data taken from US11147848B2, “Extracts and isolated compounds from Cakile arabica for treatment of ulcer” (KING SAUD UNIVERSITY, priority 2013, dated 2021).
Several values for one entry are separate records, joined by “and”; a condition that tells them apart may be missing. Equal values may be shown once.

Test system: absolute ethanol-induced ulcer
Experiment: absolute ethanol-induced ulcer model (anti-ulcerogenic activity)
Assay type: in vivo, Wistar rats
Conditions: rats, oral, ranitidine 100 mg/kg, TAE 1000 mg/kg, 1 and 2 50 mg/kg; for score (lesion score): scoring system 0-5; for score (lesion score) / No. of ulcers / ulcer index: n = 6; for No. of ulcers / ulcer index: mean ± SD
Description: Evaluation of the anti-ulcerogenic activity was carried out using absolute ethanol-induced ulcer model as described by Muthu et al. Int. J. Pharm. Pharm. Sci. 2013, 5, Suppl1, 269-272.
About 30 Wistar rats were used, they divided into 5 groups each of 6 rats. Group 1 received the vehicle and served as control group, group 2 received ranitidine (100 mg/kg) and served as standard group, groups 3 received the total alcohol extract of the plant under investigation at a dose of 1000 mg/kg. groups 4 and 5 received the isolated compounds 1 and 2 at dose 50 mg/kg respectively.
Rats of all groups were fasted for 24 h then all medications were administered orally. One hour after treatment, the animals received an oral dose of absolute ethanol (1 ml/200 g) and then sacrificed one hour later, by ether inhalation, the stomachs were rapidly removed, opened along their greater curvature and gently rinsed under running tap water.
Number of lesions in the glandular part of the stomach were measured under an illuminated magnifying microscope (10×). Long lesions were counted and their lengths were measured. Petechial lesions were counted, and then each five petechial lesions were taken as 1 mm of ulcer.
The lesion scores: the mucosal lesions were quantified by the scoring system (0-5) 0=no damage, 1=Local edema and inflammation without ulcers; 2=One ulcer without inflammation; 3=one to two ulcers with inflammation & lesion diameter <1 cm; 4=More than two ulcers with lesion diameter 1-2 cm; 5=Sever ulceration with lesion diameter >2 cm.
Ulcer index To calculate the ulcer index (mm), the sum of the total length of long ulcers and petechial lesions in each group of rats was divided by its number. The curative ratio was determined according to the formula: % Protection of control ulcer=Control UI−Test UI/Control UI×100

Row | Compound | score (lesion score) | % protection of control ulcer | % protection of control ulcer (listed as ranitidine) | No. of ulcers | ulcer index [mm]
1 | CNC(=C[N+](=O)[O-])NCCSCc1ccc(CN(C)C)o1 [Ranitidine, ranitidine, reference compound] | 2.2 | 46.2% | 46.2% and 44.6% | 7.2 ± 0.84 | 7 ± 1.58
2 | CCCCOC(=O)C(O)CCC(=O)O (stereo not shown) [Compound 2, 4-hydroxy-5-n-butoxy-5-oxopentanoic acid] | 2 | 55.5% and 55.3% | – | 3.6± 2.97 | 5.8 ± 3.42
3 | CCCCCCCCCCCCCCCCCCCCCCCC(=O)O [Compound 1, tetracosanoic acid] | 1 | 80% | – | 2 ± 2.74 | 2.6 ± 3.58
